Columns and labels:
[1] = system: endothelial cell layer in rat coronary artery; assay: Electron microscopy of endothelial cell layer in rat coronary artery; settings: β-amyloid thirty minutes at 10^-6 M
Description: The physiological effects of β-amyloid treatment on the coronary artery with and without pretreatment with SOD is shown in FIG. 7A-C. FIG. 7A-C are electron micrographs showing the endothelial cell layer in rat coronary artery. […] The tissue samples were kept in glutaraldehyde solution at 4° C. until processed and then rinsed with cacodylate buffer. The tissues were post-fixed with 1% buffered osmium tetroxide, dehydrated with grated ethanol solutions, and embedded in a mixture of eponaraldite. Ultra thin sections were stained with uranyl acetate and lead citrate and viewed on a model 7,000 Hitachi transmission electron microscope. The inset bar indicates two microns. The experiment was repeated three or more times with blood vessels from different animals. FIG. 7A is a control coronary artery and depicts normal endothelial cells closely adhering to the intimal elastic lamina lining of the lumen. […] FIG. 7C depicts a rat coronary artery pretreated with SOD (150 units/ml, for thirty seconds prior to the addition of β-amyloid).

[2] = system: bovine mid cerebral arteries; assay: Bovine mid cerebral artery contraction (U46619) and bradykinin vasodilation; settings: 1 μM β-amyloid for 15 minutes
Description: Freshly dissected bovine mid cerebral arteries were cut into 3 mm rings and studied in tissue chamber as described earlier. Contraction of the blood vessel to the vasoconstrictor U46619 was studied before and after treatment with 1 μM β-amyloid for 15 minutes. […] (See FIG. 24).

[3] = system: porcine coronary arteries; assay: Porcine coronary artery vascular tone and bradykinin relaxation
From the text: Freshly isolated porcine coronary arteries were studied by the methods described above for rat aorta.
The effect of pre-treatment with a single dose of amyloid protein on relaxation induced by increasing concentrations of the vasodilator bradykinin is shown in FIG. 23. […] was preconstricted with a single dose of the vasoconstrictor U46619.

β-amyloid
endothelial layer morphology in rat coronary artery [1]: Derangement of the endothelial layer, condensed nucleus, separation from the intimal elastic lamina, and areas of denuded internal elastic lamina | contraction induced by U46619 after β-amyloid [2]: significantly increased | vasodilatory effect of bradykinin after β-amyloid [2]: markedly reduced | contraction of porcine coronary artery ([3]; increasing concentrations of amyloid peptide): dose dependent contraction | vasodilation caused by bradykinin after amyloid peptide ([3]; single dose of amyloid, increasing bradykinin): reduced the vasodilation caused by the bradykinin | vasoconstriction by U46619 after amyloid peptide ([3]; single dose of amyloid, preconstricted with U46619): significant increase in vasoconstriction

— patent US6011019A, “Vasoactive effects and free radical generation by β-amyloid peptides” (University of South Florida, priority 1996, dated 2000)
